{"source": "patent US6803466B1", "about": "“HIV/FIV protease inhibitors having a small P3 residue” (The Scripps Research Institute, priority 1997, dated 2004)", "key": {"uninfected 174×CEM cells": {"test_system": "uninfected 174×CEM cells", "experiment": "Effect on uninfected cells of the SIV assay", "assay_type": "cell-based", "conditions": "10, 1.0, 0.1 and 0.001 μg/ml", "description": "Cells were acutely infected with approximately 400 TCID50 units of SIVmac251 for 90 min at 37° C. The cells were collected by centrifugation, washed twice with medium to remove free virus, then plated in 0.45 ml medium in 48-well tissue culture plates, at 10^5 cells per well. Compound 1200, prepared as a 10 mg/ml stock in DMSO, was then added to final concentrations of 10, 1.0, 0.1, and 0.001 μg/ml final concentrations, in triplicate cultures. Triplicate control cultures received medium only."}, "feline T-cells": {"test_system": "feline T-cells", "experiment": "Toxicity to feline T-cells in culture", "assay_type": "cell-based", "description": "For FIV, the assays were performed in FIV-infected feline T-cells which were cultured in the presence of compound 1200 at different concentrations over the course of 1 month. Each data in FIG. 14 represents the amount of pelletable FIV reverse transcriptase in the culture supernatant. […] Furthermore, this inhibitor was not toxic to feline T-cells. After one month, the drug-treated cultures were split and replated with and without compound 1200.\nThe lymphocytic cell line 104-C1 (provided by C. Grant) was used as the target for infection. Cells were cultured in RPMI-1640 media supplemented with 10% FBS, 200 μM L-Glutamine, 1×MEM-Vitamins, 100 μM Sodium Pyruvate, 1×Non-Essential Amino Acids, 5.5×10−5M b-ME, 50 μg/ml Gentamicin, 50 U/ml human recombinant Interleukin-2 (provided by Hoffmann-LaRoche) and 7.5 μg/ml Concanavalin-A. For inhibitor assessment, 5×10^6 cells were infected with FIV-PPR (4×105 RT units) in 1 mL culture for 2 hr at 37° C. No virus and virus only controls were incubated in a similar manner. The cells were then washed with Hanks-buffered saline solution (HBSS) and resuspended in 10 ml of complete medium. […] The culture supernatants were monitored for the presence of pelletable reverse transcriptase activity at weekly intervals, as follows. […] The paper was then dried and counted on a scintillation counter."}, "82F/84V mutant": {"test_system": "82F/84V mutant", "experiment": "Cell culture IC90, 82F/84V mutant", "assay_type": "cell-based, HIV", "conditions": "Human immunodeficiency virus 1, read-out: IC90 against the 82F/84V mutant"}, "[1]": {"test_system": "FIV-PPR in feline T-cells (104-C1)", "experiment": "Ex vivo inhibitor analysis against FIV, pelletable reverse transcriptase in culture supernatant", "assay_type": "cell-based, feline immunodeficiency virus", "conditions": "for FIV replication, pelletable reverse transcriptase: feline T-cells, 1 month", "description": "For FIV, the assays were performed in FIV-infected feline T-cells which were cultured in the presence of compound 1200 at different concentrations over the course of 1 month. Each data in FIG. 14 represents the amount of pelletable FIV reverse transcriptase in the culture supernatant. […] After one month, the drug-treated cultures were split and replated with and without compound 1200.\nThe lymphocytic cell line 104-C1 (provided by C. Grant) was used as the target for infection. Cells were cultured in RPMI-1640 media supplemented with 10% FBS, 200 μM L-Glutamine, 1×MEM-Vitamins, 100 μM Sodium Pyruvate, 1×Non-Essential Amino Acids, 5.5×10−5M b-ME, 50 μg/ml Gentamicin, 50 U/ml human recombinant Interleukin-2 (provided by Hoffmann-LaRoche) and 7.5 μg/ml Concanavalin-A. For inhibitor assessment, 5×10^6 cells were infected with FIV-PPR (4×105 RT units) in 1 mL culture for 2 hr at 37° C. […] The cells were then washed with Hanks-buffered saline solution (HBSS) and resuspended in 10 ml of complete medium. The compound 1200 (10 mg/mL in DMSO) was then added to final concentrations of 0.1, 0.5, 1, and 5 μg/ml in duplicate. The cells were then incubated at 37° C. The culture supernatants were monitored for the presence of pelletable reverse transcriptase activity at weekly intervals, as follows. Cell-free culture supernatants (4 ml) were centrifuged at 60K for 30 min and the pellets were resuspended in 100 μl of lysis buffer containing 40 mM TrisHCl (pH 8.1), 360 mM NaCl, 20 mM DTT and 0.2% NP40. Twenty five μl of lysate was added to 25 μl of a mixture containing polyrA-pdT (Pharmacia, Piscataway, N.J.), MgCl2, and 3H-labeled deoxythymidine 5′-triphosphate (DuPont NEN, Boston, Mass.), and incubated for 1 hr at 37° C. The mixture was spotted on DE81 paper, air-dried, fixed in 0.1 M sodium pyrophosphate, washed three times in 0.3 M ammonium formate, and an additional time in 95% ethanol. The paper was then dried and counted on a scintillation counter.\nCells were split 1:5 after the second, third, and fourth time points and fresh inhibitor was added at the appropriate concentration at each of these intervals. The data were expressed as values +/−standard deviation of the mean."}, "I84V mutant": {"test_system": "I84V mutant", "experiment": "Cell culture IC90, I84V mutant", "assay_type": "cell-based, HIV", "conditions": "Human immunodeficiency virus 1, read-out: IC90 against the I84V mutant"}}}
{"compound": "CC(C)[C@H](NC(=O)[C@H](C)NC(=O)OCc1ccccc1)C(=O)N[C@@H](Cc1ccccc1)[C@@H](O)[C@H](O)[C@H](Cc1ccccc1)NC(=O)[C@@H](NC(=O)[C@H](C)NC(=O)OCc1ccccc1)C(C)C", "note": "[Compound 1b]", "values": [{"measurement": "effects on uninfected cells", "setting": "uninfected 174×CEM cells", "result": "no effects noted"}, {"measurement": "toxicity to cells", "setting": "feline T-cells", "result": "not toxic"}, {"measurement": "IC90", "setting": "82F/84V mutant", "result": 900, "unit": "nM"}, {"measurement": "prevention of FIV infection in tissue culture (in words)", "setting": "[1]", "result": "strongly inhibits"}, {"measurement": "FIV replication, pelletable reverse transcriptase", "setting": "[1]; 1.0 μg/ml (1.1 μM)", "result": "most effective"}, {"measurement": "virus after drug-treated cultures were split and replated with and without drug", "setting": "[1]; after one month of treatment, two weeks in culture", "result": "No virus was detected"}, {"measurement": "resistance development against the drug", "setting": "[1]; eight weeks of continuous culture", "result": "No sign of resistance development"}, {"measurement": "FIV replication, pelletable reverse transcriptase", "setting": "[1]", "result": "markedly inhibit"}, {"measurement": "IC90", "setting": "I84V mutant", "result": 400, "unit": "nM"}]}
